Our source for the IC50 values is patent publication US5387709A, “Substituted sulfonamides, process of preparation and medicines containing same” (Lipha Lyonnaise Industrielle Pharmaceutique, priority 1990, dated 1995).

The test system of one test is platelets of guinea-pig. Briefly: Inhibition of the platelet aggregation induced by U46619 (BORN test), guinea-pig platelets. In kind it is cell-based. The conditions noted are these: Cavia porcellus, Platelet, read-out: PLATELET AGGREGATION GUINEA-PIG IC 50. The text has this: (A) Inhibition of the platelet aggregation induced by U46619, a stable analogue of TXA2 (9,11-dideoxy-11α,9α-epoxymethanoprostaglandine F2 α):
The tests determine a concentration of compound which inhibits at 50% (CI50) a liminar aggregation induced by U46619. The activities of the compounds of the present invention are given in example 108.
(§1) The products of examples 1 to 107 have been tested for platelet aggregation on guinea-pig and on the contraction of the aorta in rat as described previously.

A further test relates to rat aorta. Briefly: Inhibition of the U46619 induced rat aorta vasoconstriction. In kind it is cell-based. The settings on record: Rattus norvegicus, contraction by U46619 (142 nM), rat thoracic aorta, 37° C.; read-out: VASOCONSTRICTION RAT AORTA IC 50. The protocol:
(B) Inhibition of the U46619 induced rat aorta vasoconstriction:
male rats weighing about 300 g are put to death by euthanasia; the thoracic aorta is rapidly taken out. A sample of about 1 cm is cut into a spiral, and placed in a vat containing 20 ml of nutrient medium (Krebs-Henseleit) kept a 37° C. and oxygenated (O2 95%, CO2 5%). The contractions are recorded with an isotonic strain gauge. After a rest of 45 mn, supramaximum contractions are provoked by the addition of an analogue of TXA2 (U46619: 142 nM) to the survival medium. A plateau is generally reached after 10 mn of contact, the latter not exceeding 25 mn. A rest of 30 mn and a plurality of rinses take place after each contraction. The products are added 10 mn after U46619 and allowed to rest 15 mn, after which delay the inhibition is measured. The inhibitory concentration 50 (IC) is determined for each compound studied and on a minimum of 3 aortas. The activities of the compounds of the present invention are described in example 108.
as §1

The structures appear in SMILES notation. pIC50: −log10 of the molar value.

With `O=C(O)Cc1ccc(CC2(CNS(=O)(=O)c3ccc(Cl)cc3)CCCCCC2)cc1` [Example 73, 4-[[1-[[[(4-Chlorophenyl]sulfonyl]amino]methyl]cycloheptyl]methyl]benzeneacetic acid], the pIC50 with platelets of guinea-pig is 6.15; in the test on rat aorta, 6.70.
The like results for `O=C(Cc1ccc(CC2(CNS(=O)(=O)c3ccc(Cl)cc3)CCCC2)cc1)N1CCOCC1` [Example 74, 4-Chloro-N-[[1-[[4-[2-(morpholin-4-yl)-2-oxoethyl]phenyl]methyl]cyclopentyl]methyl]benzenesulfonamide] were, in that order, less than 5.30 and less than 6.00.
`NC(=O)Cc1ccc(CC2(CNS(=O)(=O)c3ccc(Cl)cc3)CCCC2)cc1` [Example 75, 4-[[1-[[[(4-Chlorophenyl)sulfonyl]amino]methyl]cyclopentyl]methyl]benzeneacetamide]: the pIC50 in the test on platelets of guinea-pig is less than 5.30; in the test with rat aorta it was less than 6.00.
For `O=C(O)CCNC(=O)Cc1ccc(CC2(CNS(=O)(=O)c3ccc(Cl)cc3)CCCC2)cc1` [Example 76, 3-[[2-[4-[[1-[[[(4-Chlorophenyl)sulfonyl]amino]methyl]cyclopentyl]methyl]phenyl]-1-oxoethyl]amino]propanoic acid], in that order: 5.54 and less than 6.00.
The like results for `CCOC(=O)Cc1ccc(CC2(CNS(=O)(=O)c3ccc(Cl)cc3)CCCC2)cc1` [Example 77, Ethyl 4-[[1-[[[(4-chlorophenyl)sulfonyl]amino]methyl]cyclopentyl]methyl]benzeneacetate] were, in that order, 5.62 and less than 6.00.
`CCN(CC)CCOC(=O)Cc1ccc(CC2(CNS(=O)(=O)c3ccc(Cl)cc3)CCCC2)cc1` [Example 79, 2-(Diethylamino)ethyl 4-[[1-[[[(4-Chlorophenyl)sulfonyl]amino]methyl]cyclopentyl]methyl]benzeneacetate]: the pIC50 with platelets of guinea-pig is 7.00; in the test on rat aorta, 6.77.
On to `O=S(=O)(O)Cc1ccc(CC2(CNS(=O)(=O)c3ccc(Cl)cc3)CCCC2)cc1` [Example 80, 4-[[1-[[[(4-Chlorophenyl)sulfonyl]amino]methyl]cyclopentyl]methyl]benzenemethanesulfonic acid], for which the pIC50 in the test on platelets of guinea-pig is 5.54; with rat aorta, 6.72.
As to `O=S(=O)(NCC1(Cc2ccc(Cc3nnn[nH]3)cc2)CCCC1)c1ccc(Cl)cc1` [Example 81, 4-Chloro-N-[1-[[[4-[(1H-tetrazol-5-yl)methyl]phenyl]methyl]cyclopentyl]methyl]benzenesulfonamide], the pIC50 is 5.80 with platelets of guinea-pig and 7.22 with rat aorta.
Turning to `Nc1ccc(S(=O)(=O)NCC2(Cc3ccc(Cc4nnn[nH]4)cc3)CCCC2)cc1` [Example 82, 4-Amino-N-[1-[[[4-[(1H-tetrazol-5-yl)methyl]phenyl]methyl]cyclopentyl]methyl]benzenesulfonamide], the pIC50 was 5.70 with platelets of guinea-pig and 6.00 in the test on rat aorta.
The like results for `O=P(O)(O)Cc1ccc(CC2(CNS(=O)(=O)c3ccc(Cl)cc3)CCCC2)cc1` [Example 83, [[4-[[1-[[[(4-Chlorophenyl)sulfonyl]amino]methyl]cyclopentyl]methyl]phenyl]methyl]phosphonic acid] were, in that order, 6.03 and 6.00.
The like results for `C[S+]([O-])c1ccc(S(=O)(=O)NCC2(Cc3ccc(CC(=O)O)cc3)CCCC2)cc1` (stereo not shown) [Example 84, 4-[[1-[[[(4-Methylsulfinylphenyl)sulfonyl]amino]methyl]cyclopentyl]methyl]benzeneacetic acid] were, in that order, less than 5.30 and 6.00.
The like results for `CC(=O)Nc1ccc(S(=O)(=O)NCC2(Cc3ccc(CC(=O)O)cc3)CCCC2)cc1` [Example 85, 4-[[1-[[[(4-acetamidophenyl)sulfonyl]amino]methyl]cyclopentyl]methyl]benzeneacetic acid] were, in that order, 5.89 and less than 6.00.
Turning to `Nc1ccc(S(=O)(=O)NCC2(Cc3ccc(CC(=O)O)cc3)CCCC2)cc1` [Example 86, 4-[[1-[[[(4-Aminophenyl)sulfonyl]amino]methyl]cyclopentyl]methyl]benzeneacetic acid], the pIC50 in the test with platelets of guinea-pig was 6.29; with rat aorta, 6.00.
Take `O=C(O)Cc1ccc(CC2(CNS(=O)(=O)c3ccc(Cl)cc3)CCCCC2)cc1` [Example 87, 4-[[1-[[[(4-Chlorophenyl)sulfonyl]amino]methyl]cyclohexyl]methyl]benzeneacetic acid]: the pIC50 in the test with platelets of guinea-pig was 5.40; with rat aorta, 6.22.
For `O=C(O)Cc1ccc(CC2(CNS(=O)(=O)c3ccc(Cl)cc3)CCOCC2)cc1` [Example 88, 4-[[4-[[[(4-Chlorophenyl)sulfonyl]amino]methyl]tetrahydropyran-4-yl]methyl]benzeneacetic acid], in that order: 6.51 and 6.00.
In the case of `CC1(C)CC(CNS(=O)(=O)c2ccc(Cl)cc2)(Cc2ccc(CC(=O)O)cc2)C1` [Example 89, 4-[[1-[[[(4-Chlorophenyl)sulfonyl]amino]methyl]-3,3-dimethylcyclobutyl]methyl]benzeneacetic acid], the pIC50 in the test on platelets of guinea-pig was 6.59; in the test with rat aorta, 7.52.
As for `CC1(C)C(C)(C)C1(CNS(=O)(=O)c1ccc(Cl)cc1)Cc1ccc(CC(=O)O)cc1` [Example 90, 4-[[1-[[[(4-Chlorophenyl)sulfonyl]amino]methyl]-2,2,3,3-tetramethylcyclopropyl]methyl]benzeneacetic acid], the pIC50 was less than 5.30 with platelets of guinea-pig and less than 6.00 in the test on rat aorta.
The like results for `O=C(O)Cc1ccc(CC2(CNS(=O)(=O)c3ccc(Cl)cc3)CCC(=O)CC2)cc1` [Example 91, 4-[[1-[[[(4-Chlorophenyl)sulfonyl]amino]methyl]-4-oxocyclohexyl]methyl]benzeneacetic acid] were, in that order, 5.51 and 6.00.
In the case of `O=C(O)Cc1ccccc1CC1(CNS(=O)(=O)c2ccc(Cl)cc2)CCCC1` [Example 92, 2-[[1-[[[(4-Chlorophenyl)sulfonyl]amino]methyl]cyclopentyl]methyl]benzeneacetic acid], the pIC50 in the test on platelets of guinea-pig is 6.43; in the test with rat aorta it was 6.00.
Turning to `O=C(O)Cc1cccc(CC2(CNS(=O)(=O)c3ccc(Cl)cc3)CCCC2)c1` [Example 93, 3-[[1-[[[(4-Chlorophenyl)sulfonyl]amino]methyl]cyclopentyl]methyl]benzeneacetic acid], the pIC50 with platelets of guinea-pig was 5.80; in the test on rat aorta, 7.30.
For `CCCCCCc1ccc(S(=O)(=O)NCC2(Cc3ccc(CC(=O)O)cc3)CCCC2)cc1` [Example 94, 4-[[1-[[[(4 -Hexylphenyl)sulfonyl]amino]methyl]cyclopentyl]methyl]benzeneacetic acid], in that order: 5.74 and less than 6.00.
With `O=C(O)Cc1ccc(CC2(CNS(=O)(=O)c3ccc([N+](=O)[O-])cc3)CCCC2)cc1` [Example 95], the pIC50 in the test with platelets of guinea-pig is 6.24; with rat aorta, 6.55.
For `O=C(O)Cc1ccc(CC2(CNS(=O)(=O)c3cccc4ccccc34)CCCC2)cc1` [Example 96, 4-[[1-[[[(Naphthalen-1-yl)sulfonyl]amino]methyl]cyclopentyl]methyl]benzeneacetic acid], in that order: 6.12 and less than 6.00.
For `CCCCCCOc1ccc(S(=O)(=O)NCC2(Cc3ccc(CC(=O)O)cc3)CCCC2)cc1` [Example 97, 4-[[1-[[[(4-Hexyloxyphenyl)sulfonyl]amino]methyl]cyclopentyl]methyl]benzeneacetic acid], in that order: 5.23 and less than 6.00.
`O=C(O)Cc1ccc(CC2(CNS(=O)(=O)c3ccccc3F)CCCC2)cc1` [Example 98, 4-[[1-[[[(2-Fluorophenyl)sulfonyl]amino]methyl]cyclopentyl]methyl]benzeneacetic acid]: the pIC50 is 6.60 with platelets of guinea-pig and 6.49 in the test on rat aorta.
In the case of `O=C(O)Cc1ccc(CC2(CNS(=O)(=O)c3ccc(C4CCCCC4)cc3)CCCC2)cc1` [Example 99, 4-[[1-[[[(4-Cyclohexylphenyl)sulfonyl]amino]methyl]cyclopentyl]methyl]benzeneacetic acid], the pIC50 was less than 5.30 in the test on platelets of guinea-pig and less than 6.00 in the test with rat aorta.
For `O=C(O)Cc1ccc(CC2(CNS(=O)(=O)c3c(F)c(F)c(F)c(F)c3F)CCCC2)cc1` [Example 100, 4-[[1-[[[(Pentafluorophenyl)sulfonyl]amino]methyl]cyclopentyl]methyl]benzeneacetic acid], in that order: less than 5.30 and less than 6.00.
For `O=C(O)Cc1ccc(CC2(CNS(=O)(=O)c3ccc(-c4ccccc4)cc3)CCCC2)cc1` [Example 101, 4-[[1-[[([1,1'-Biphenyl-4-yl]sulfonyl)amino]methyl]cyclopentyl]methyl]benzeneacetic acid], in that order: less than 5.30 and less than 6.00.
For `CSc1ccc(S(=O)(=O)NCC2(Cc3ccc(CC(=O)O)cc3)CCCC2)cc1` [Example 103, 4-[[1-[[[(4-methylthiophenyl]sulfonyl]amino]methyl]cyclopentyl]methyl]benzeneacetic acid], the pIC50 is 6.00 in the test with platelets of guinea-pig and 6.74 with rat aorta.
